Experimental data as given in US20130274270A1, “POLYMORPHS OF 3-CHLORO-4[(2R)-2-(4-CHLOROPHENYL)-4-[(1R)-1-(4-CYANOPHENYL)ETHYL]-1-PIPERAZINYL]-BENZONITRILE, PHARMACEUTICAL COMPOSITIONS AND METHOD OF USE COMPRISING SAID POLYMORPHS, AND A PROCESS FOR PREPARING THEM” (priority 2010, published 2013).
Where a name gives a salt, the structure may show the parent alone.

What was measured:
Type in all cases: physicochemical
[1] = Solvent-mediated polymorphic transformation experiments (slurry / slow evaporation, PXRD)
Method: Solvent-mediated polymorphic transformation experiments were conducted by combining approximately 100 mg of starting material with 1 milliliter of solvent in a 4 mL amber glass vial. A polytetrafluoroethylene coated magnetic stir bar was added to each vial. For suspensions, the vials were sealed with polytetrafluoroethylene-lined caps and stirred using magnetic stir plates at 4° C., room temperature, or 50° C. for 14 days. For solutions, the vials were covered with aluminum foil and the solutions were slowly evaporated for 14 days. Solids were collected and analyzed for changes in crystal form. For this work, both slurry and evaporative crystallization was performed. Slurry experiments are utilized to identify the thermodynamically stable form while evaporative crystallizations favor the identification of metastable forms.

[2] = Competition slurry experiments
Method: Competition slurry experiments were conducted by combining approximately 100 milligrams of starting material with 1 milliliter of solvent in a 4 milliliter amber glass vial. A polytetrafluoroethylene coated magnetic stir bar was added to each vial. The slurry sample was stirred for one day and checked to confirm solids were still present. The sample was then seeded with forms identified during the polymorph screening and continued stirring at room temperature for 9 days. Solids were collected and analyzed to determine their crystal form.
The evaporative crystallization experiments from solutions produced another polymorph, termed Form II, and two suspected solvates or hydrates. Competition slurries were prepared with Form I, Form II and the suspected solvates or hydrates to confirm they were metastable with respect to Form 1. The competition slurries were prepared by dispersing Form II in isopropanol, a water/methanol mixture at a water activity of 0.5, and water.
A variable-temperature competition slurry was repeated using Forms I and III by suspending approximately 100 mg of each form in 2 milliliters of isopropanol at 4° C., room temperature, 40° C., and 50° C. The slurries were allowed to stir for 11 days and checked by PXRD. […] Afterwards, the solutions were seeded with Form I and stirred for 1 day.

[3] = Thermogravimetric analysis (TGA)
Method: (§1) All powder X-ray diffraction (PXRD) data was collected using a Rigaku Miniflex instrument. Samples were analyzed on silicon zero background holders from 2 to 40 degrees two theta with a step size of 0.02 degrees two theta and a scan time of 0.6 seconds per step. Differential scanning calorimetry (DSC) data was collected using a Q100 DSC from TA Instruments. Samples were sealed in hermetic aluminum pans with two pinholes in the lid. All were analyzed under nitrogen purge. Vapor sorption analysis was performed using a SGA-100 from VTI Scientific Instruments. Thermogravimetric analysis (TGA) data was collected on a Q500 TGA from TA Instruments. Samples were analyzed in platinum pans under a nitrogen purge.

[4] = Vapor sorption analysis (change in crystal form as a function of moisture); conditions: 25° C.
Method: as §1
Change in crystal form as a function of moisture was evaluated by a SGA-100 vapor sorption instrument from VTI Scientific Instruments. Approximately 10 to 15 mg of material was exposed to a relative humidity range from 5% to 95% at 25° C. for 2 cycles.

[5] = Change in crystal form as a function of milling; conditions: ground for 5 seconds at 3800 rpm
Method: Change in crystal form as a function of milling was conducted by grinding 79.2 milligrams of material in a stainless steel liner with a stainless steel ball pestle using a high speed mixer and amalgamator. The material was ground for 5 seconds at 3800 rpm.

[6] = Change in crystal form as a function of pressure (Carver press); conditions: 13 mm die, approximately 4000 pounds, approximately 30 seconds
Method: Change in crystal form as a function of pressure was evaluated by pressing 86.0 mg of material in a 13 millimeter die at approximately 4000 pounds for approximately 30 seconds with a carver press.

[7] = Change in crystal form as a function of heating (DSC heating rates); conditions: DSC at 2° C., 10° C. and 20° C. per minute
Method: Change in crystal form as a function of heating was evaluated by analyzing samples of the material using the DSC at heating rates of 2, 10, and 20° C. per minute.

[8] = DSC, heat of fusion rule; conditions: monotropically related forms
Method: as §1

[9] = Photosensitivity; conditions: especially in solution
[10] = Temperature-solubility profile in isopropanol (Crystal 16)
Method: To further characterize Form III, temperature-solubility profiles were constructed for both Form I and III. Different amounts of each form were suspended in 1 milliliter of isopropanol to prepare solutions of varying concentrations. The experiments were conducted on Crystal 16 to generate a temperature-solubility profile. The suspensions were slowly heated from 20° C. to 75° C. at 0.1° C./min and then cooled to 0° C. at a rate of 0.1° C. /min. The stirring rate was 700 rpm during the entire experiment.

[11] = Acetonitrile, RT/Solution, slowly evaporated 14 days
[12] = Dichloromethane, RT/Solution, slowly evaporated 14 days
[13] = Isopropanol, RT/Suspension, stirred 14 days
[14] = Water, RT/Suspension, stirred 14 days
[15] = Water/Methanol, 4° C./Suspension, stirred 14 days
[16] = Water/Methanol, 50° C./Suspension, stirred 14 days
[17] = Water/Methanol, RT/Suspension, stirred 14 days

| SMILES | PXRD Result [1, 11] | PXRD Result [1, 12] | PXRD Result [1, 13] | PXRD Result [1, 14] | PXRD Result [1, 15] | PXRD Result [1, 16] | PXRD Result [1, 17] | decomposition temperature [3] | Thermodynamic stability by competition slurry experiments [2] | sensitivity to light [9] | also measured |
| --- | --- | --- | --- | --- | --- | --- | --- | --- | --- | --- | --- |
| C[C@H](c1ccc(C#N)cc1)N1CCN(c2ccc(C#N)cc2Cl)[C@H](c2ccc(Cl)cc2)C1 [Form II, 3-Chloro-4[(2R)-2-(4-chlorophenyl)-4-[(1R)-1-(4-cyanophenyl)ethyl]-1-piperazinyl]-benzonitrile] | Form II | Form II | Form I | Form II | Form I | Form I | Form I | 310 °C |  |  | Crystal form of solids collected from competition slurry ([2]; Form II dispersed in isopropanol, seeded with the other forms, room temperature): consistent with Form I; Crystal form of solids collected from competition slurry ([2]; Form II dispersed in water, seeded, room temperature): stayed as Form II; Crystal form of solids collected from competition slurry ([2]; Form II dispersed in water/methanol mixture at a water activity of 0.5, seeded, room temperature): consistent with Form I; weight loss (TGA) ([3]; at 226° C.): 0.6% |
| C[C@H](c1ccc(C#N)cc1)N1CCN(c2ccc(C#N)cc2Cl)[C@H](c2ccc(Cl)cc2)C1 [Form I, 3-Chloro-4[(2R)-2-(4-chlorophenyl)-4-[(1R)-1-(4-cyanophenyl)ethyl]-1-piperazinyl]-benzonitrile] | Form 2 | Form 2 | Form 1 | Form 1 | Form 1 | Form 1 | Form 1 | above 295 °C | a stable form |  | PXRD Result ([1]; Toluene, 50° C./Solution, 14 days): Amorphous; Thermodynamic stability indicated by slurry experiments ([1]; all slurry experiments except those in water, regardless of starting form, water activity or temperature): the most thermodynamically stable form; weight loss (TGA) ([3]; at 204° C.): 0.6%; polymorphic form change after vapor sorption analysis (PXRD before and after) ([4]; 5% to 95% relative humidity): no polymorphic form change; moisture absorbed by weight ([4]; between 5% and 95% relative humidity, 2 cycles): 0.07%; change in crystal form after milling [5]: no significant change in the crystal form; change in crystal form after pressing [6]: no significant change in the crystal form; change in crystal form as a function of heating rate [7]: no change in the crystal form; relative thermodynamic stability of Form I and Form II (heat of fusion rule) [8]: the more thermodynamically stable |
| CC(c1ccc(C#N)cc1)N1CCN(c2ccc(C#N)cc2Cl)C(c2ccc(Cl)cc2)C1 (stereo not drawn) [Formula II] |  |  |  |  |  |  |  |  |  | photosensitive |  |
| C[C@H](c1ccc(C#N)cc1)N1CCN(c2ccc(C#N)cc2Cl)[C@H](c2ccc(Cl)cc2)C1 [Form III, 3-Chloro-4[(2R)-2-(4-chlorophenyl)-4-[(1R)-1-(4-cyanophenyl)ethyl]-1-piperazinyl]-benzonitrile] |  |  |  |  |  |  |  | 312 °C | the most stable form |  | PXRD result of variable-temperature competition slurry of Forms I and III ([2]; about 100 mg of each form in 2 mL isopropanol at 4° C., room temperature, 40° C. and 50° C., 11 days): Form III was formed under all conditions; PXRD result after seeding with Form I ([2]; isopropanol slurries seeded with Form I and stirred for 1 day): remained as Form III; weight loss (TGA) ([3]; at 228° C.): 0.07%; thermodynamic stability from temperature-solubility profile ([10]; above 29.4° C.): the most thermodynamically stable anhydrous crystalline form; relative solubility ([10]; at temperatures greater than 29.4° C.): less soluble than Form I |
| C[C@H](c1ccc(C#N)cc1)N1CCN(c2ccc(C#N)cc2Cl)[C@H](c2ccc(Cl)cc2)C1 [xinafoate salt] |  |  |  |  |  |  |  |  |  |  | weight loss (TGA) ([3]; at 146° C.): 0.2%; behaviour of the salt on melting (large weight loss at melt) ([3]; melt at 163.5° C.): disproportionates or decomposes with melting; weight loss (TGA) ([3]; starting from 161° C. and ending at 236° C.): 27.2% |
| C[C@H](c1ccc(C#N)cc1)N1CCN(c2ccc(C#N)cc2Cl)[C@H](c2ccc(Cl)cc2)C1 [Compound A, 3-Chloro-4[(2R)-2-(4-chlorophenyl)-4-[(1R)-1-(4-cyanophenyl)ethyl]-1-piperazinyl]-benzonitrile] |  |  |  |  |  |  |  |  |  | photosensitive |  |
